Test results reported in ChEMBL document CHEMBL5260820, “Discovery of novel steroidal histamine H3 receptor antagonists/inverse agonists” (Bioorg Med Chem Lett, 2017).
Values after ≈ are worked out from the molar mass of the structure shown.

How the values were obtained:
Histamine H3 receptor [1] = target: T1, Histamine H3 receptor (Homo sapiens, UniProt Q9Y5N1); assay: Inverse agonist activity at recombinant human histamine H3 receptor expressed in CHO-K1 cells assessed as maximal efficacy preincubated for 10 mins followed by [35S]GTPgammaS addition and measured after 60 mins by TopCount NXT based scintillation analysis relative to control; type: cell-based; details: time 70.0 min
[2] = Displacement of [3H]quinuclidinyl benzilate from Wistar rat cortex muscarinic AChR assessed as inhibition constant by liquid scintillation counting analysis; type: tissue-based
Histamine H3 receptor [3] = target: T1, Histamine H3 receptor; assay: Antagonist activity at human histamine H3 receptor expressed in CHO-K1 cells assessed as inhibition of imetit-stimulation ERK1/2 phosphorylation by ELISA analysis; type: cell-based
Histamine H3 receptor [4] = target: T1, Histamine H3 receptor; assay: Inverse agonist activity at recombinant human histamine H3 receptor expressed in CHO-K1 cells preincubated for 10 mins followed by [35S]GTPgammaS addition and measured after 60 mins by TopCount NXT based scintillation analysis; type: cell-based
Histamine H3 receptor [5] = target: T1, Histamine H3 receptor; assay: Displacement of N-alpha-[methyl-3H]-methylhistamine dihydrochloride from recombinant human histamine H3 receptor expressed in CHO-K1 cells assessed as inhibition constant incubated for 30 mins by liquid scintillation analysis; type: cell-based
Histamine H3 receptor [6] = target: Histamine H3 receptor (Rattus norvegicus, UniProt Q9QYN8); assay: Displacement of N-alpha-[methyl-3H]-methylhistamine dihydrochloride from Sprague-Dawley rat brain membrane histamine H3 receptor assessed as inhibition constant incubated for 30 mins by liquid scintillation counting analysis; type: cell membranes
Rattus norvegicus [7] = species on record: Rattus norvegicus; assay: Displacement of [3H]quinuclidinyl benzilate from Wistar rat cortex muscarinic AChR at 3 uM by liquid scintillation counting analysis relative to control; type: tissue-based
Rattus norvegicus [8] = species on record: Rattus norvegicus; assay: Displacement of [3H]quinuclidinyl benzilate from Wistar rat cortex muscarinic AChR at 1 uM by liquid scintillation counting analysis relative to control; type: tissue-based
[9] = Selectivity index, ratio of Ki for displacement of [3H]quinuclidinyl benzilate from Wistar rat cortex muscarinic AChR to Ki for N-alpha-[methyl-3H]-methylhistamine dihydrochloride from Sprague-Dawley rat brain membrane histamine H3 receptor
[10] = target: Histamine H3 receptor (Rattus norvegicus) (UniProt Q9QYN8); assay: Displacement of N-alpha-[methyl-3H]-methylhistamine dihydrochloride from Sprague-Dawley rat brain membrane histamine H3 receptor at 300 nM incubated for 30 mins by liquid scintillation counting analysis relative to control; type: cell membranes
[11] = target: Estrogen receptor beta (Homo sapiens) (UniProt Q92731); assay: Binding affinity to Estrogen receptor beta (unknown origin) at 1 uM by displacement assay relative to control
[12] = target: T2, Estrogen receptor (Homo sapiens) (UniProt P03372); assay: Binding affinity to Estrogen receptor alpha (unknown origin) at 1 uM by displacement assay relative to control
T2 sequence (whole entry): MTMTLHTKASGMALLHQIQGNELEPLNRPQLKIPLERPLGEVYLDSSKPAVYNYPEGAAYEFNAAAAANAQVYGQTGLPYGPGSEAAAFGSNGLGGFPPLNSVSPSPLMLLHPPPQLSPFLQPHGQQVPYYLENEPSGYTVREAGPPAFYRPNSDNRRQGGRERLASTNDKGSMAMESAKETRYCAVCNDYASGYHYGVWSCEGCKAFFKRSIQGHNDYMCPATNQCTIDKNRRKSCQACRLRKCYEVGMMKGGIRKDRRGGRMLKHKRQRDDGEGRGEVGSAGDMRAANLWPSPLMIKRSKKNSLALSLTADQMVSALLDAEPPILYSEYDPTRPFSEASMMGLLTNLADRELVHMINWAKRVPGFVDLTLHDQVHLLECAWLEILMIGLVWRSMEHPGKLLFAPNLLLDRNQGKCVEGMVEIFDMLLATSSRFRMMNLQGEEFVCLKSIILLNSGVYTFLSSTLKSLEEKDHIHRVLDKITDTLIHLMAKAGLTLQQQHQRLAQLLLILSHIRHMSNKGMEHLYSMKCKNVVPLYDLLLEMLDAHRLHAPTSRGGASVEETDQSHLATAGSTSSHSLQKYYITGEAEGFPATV

[13] = target: Histamine H4 receptor (Homo sapiens) (UniProt Q9H3N8); assay: Displacement of [3H]histamine from human histamine H4 receptors expressed in CHO-K1 cell membrane at 1 uM incubated for 30 mins by scintillation counter analysis relative to control; type: cell membranes
[14] = target: Histamine H2 receptor (Homo sapiens) (UniProt P25021); assay: Displacement of [3H]tiotidine from recombinant human histamine H2 receptor expressed in CHO-K1 cell membrane at 1 uM incubated for 45 mins by Scintillation counter analysis relative to control; type: cell membranes
[15] = target: Histamine H1 receptor (Homo sapiens) (UniProt P35367); assay: Displacement of [3H]pyrilamine from recombinant human histamine H1 receptor expressed in CHO-K1 cell membrane at 1 uM incubated for 30 mins by liquid scintillation counter analysis relative to control; type: cell membranes
[16] = Ratio AUC in Wistar rat brain to plasma at 3 mg/kg, po or iv measured upto 5 hrs by HPLC-MS/MS analysis; type: ADME, organism-based; details: brain and plasma, read-out: Ratio AUC
[17] = Volume of distribution in Wistar rat at 3 mg/kg, po or iv measured upto 5 hrs by HPLC-MS/MS analysis; type: ADME, organism-based; details: in vivo
[18] = Bioavailability in Wistar rat at 3 mg/kg, po or iv measured upto 5 hrs by HPLC-MS/MS analysis; type: ADME, organism-based; details: in vivo
[19] = Tmax in Wistar rat at 3 mg/kg, po or iv measured upto 5 hrs by HPLC-MS/MS analysis; type: ADME, organism-based; details: in vivo
Rattus norvegicus [20] = assay: Anti-dipsogenic activity in imetit-induced Wistar rat model assessed as inhibition of imetit-induced water intake at 10 mg/kg, po preadministered for 30 mins followed by imetit stimulation and measured after 40 mins relative to control; type: functional; details: 1.167 h, time 70 min
[21] = Terminal half-life in Wistar rat brain at 3 mg/kg, po or iv measured upto 5 hrs by HPLC-MS/MS analysis; type: ADME, organism-based; details: read-out: beta t1/2 (converted)
[22] = Terminal half-life in Wistar rat plasma at 3 mg/kg, po or iv measured upto 5 hrs by HPLC-MS/MS analysis; type: ADME, organism-based; details: read-out: beta t1/2 (converted)
[23] = Thermodynamic […] of the compound measured after 24 hrs by HPLC-UV-MS analysis; type: physicochemical; details: read-out: Therm_solubility
[24] = Apparent permeability in vinblastine treated human CaCo-2 cells; type: ADME, cell-based
[25] = Stability in human microsomes; type: ADME, Microsome
[26] = Stability in rat microsomes; type: ADME, Microsome

Histamine H3 receptor (Rattus norvegicus, UniProt Q9QYN8), sequence (Q9QYN8 whole entry): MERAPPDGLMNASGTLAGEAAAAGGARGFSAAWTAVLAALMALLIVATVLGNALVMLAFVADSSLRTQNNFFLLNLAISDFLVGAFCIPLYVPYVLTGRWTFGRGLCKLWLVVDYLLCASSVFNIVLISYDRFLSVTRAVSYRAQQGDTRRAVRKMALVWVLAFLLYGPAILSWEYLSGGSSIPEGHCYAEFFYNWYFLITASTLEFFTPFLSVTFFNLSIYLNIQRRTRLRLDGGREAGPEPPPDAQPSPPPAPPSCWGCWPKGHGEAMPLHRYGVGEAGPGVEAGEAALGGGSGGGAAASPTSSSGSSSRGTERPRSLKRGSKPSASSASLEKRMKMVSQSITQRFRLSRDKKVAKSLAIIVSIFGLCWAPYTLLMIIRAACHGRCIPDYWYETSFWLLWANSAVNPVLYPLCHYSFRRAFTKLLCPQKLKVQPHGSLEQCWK
T1 sequence (Q9Y5N1 whole entry): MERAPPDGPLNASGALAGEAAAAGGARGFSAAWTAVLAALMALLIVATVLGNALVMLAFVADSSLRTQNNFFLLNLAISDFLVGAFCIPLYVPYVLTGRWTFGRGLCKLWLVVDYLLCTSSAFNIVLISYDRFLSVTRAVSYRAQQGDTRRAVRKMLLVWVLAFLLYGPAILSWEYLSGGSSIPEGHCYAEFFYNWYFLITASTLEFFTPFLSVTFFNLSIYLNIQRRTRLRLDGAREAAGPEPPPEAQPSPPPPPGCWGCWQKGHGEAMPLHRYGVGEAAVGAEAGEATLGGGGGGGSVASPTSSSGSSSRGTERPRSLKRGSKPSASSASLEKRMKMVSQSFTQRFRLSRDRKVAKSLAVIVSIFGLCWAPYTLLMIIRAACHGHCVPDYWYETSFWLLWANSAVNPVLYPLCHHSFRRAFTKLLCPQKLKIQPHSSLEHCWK
Histamine H3 receptor (Rattus norvegicus), sequence (Q9QYN8 whole entry): as the sequence (Q9QYN8 whole entry) above
Histamine H1 receptor (Homo sapiens), sequence (P35367 whole entry): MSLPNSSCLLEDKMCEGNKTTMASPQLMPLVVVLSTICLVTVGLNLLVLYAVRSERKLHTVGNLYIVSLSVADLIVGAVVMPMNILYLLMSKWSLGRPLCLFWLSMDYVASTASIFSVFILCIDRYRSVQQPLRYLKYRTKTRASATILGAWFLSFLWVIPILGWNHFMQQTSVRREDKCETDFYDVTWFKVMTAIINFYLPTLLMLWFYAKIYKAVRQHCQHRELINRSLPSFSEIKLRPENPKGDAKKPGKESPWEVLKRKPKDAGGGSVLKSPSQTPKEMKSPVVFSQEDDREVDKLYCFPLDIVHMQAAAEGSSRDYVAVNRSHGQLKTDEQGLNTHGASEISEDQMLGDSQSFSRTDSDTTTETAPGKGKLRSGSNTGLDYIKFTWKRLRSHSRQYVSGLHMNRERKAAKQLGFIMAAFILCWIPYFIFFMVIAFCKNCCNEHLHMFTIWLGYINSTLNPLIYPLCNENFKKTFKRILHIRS
Histamine H2 receptor (Homo sapiens), sequence (P25021 whole entry): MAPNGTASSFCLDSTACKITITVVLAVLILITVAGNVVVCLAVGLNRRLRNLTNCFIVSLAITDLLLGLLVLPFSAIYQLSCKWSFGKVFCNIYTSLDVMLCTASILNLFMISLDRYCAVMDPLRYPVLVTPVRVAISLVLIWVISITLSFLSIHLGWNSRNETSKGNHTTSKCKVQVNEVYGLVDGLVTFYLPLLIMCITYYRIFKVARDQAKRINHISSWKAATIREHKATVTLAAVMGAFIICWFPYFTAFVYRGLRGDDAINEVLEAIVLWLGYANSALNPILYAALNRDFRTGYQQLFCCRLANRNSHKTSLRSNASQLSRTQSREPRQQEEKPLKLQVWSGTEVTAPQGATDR
Histamine H4 receptor (Homo sapiens), sequence (Q9H3N8 whole entry): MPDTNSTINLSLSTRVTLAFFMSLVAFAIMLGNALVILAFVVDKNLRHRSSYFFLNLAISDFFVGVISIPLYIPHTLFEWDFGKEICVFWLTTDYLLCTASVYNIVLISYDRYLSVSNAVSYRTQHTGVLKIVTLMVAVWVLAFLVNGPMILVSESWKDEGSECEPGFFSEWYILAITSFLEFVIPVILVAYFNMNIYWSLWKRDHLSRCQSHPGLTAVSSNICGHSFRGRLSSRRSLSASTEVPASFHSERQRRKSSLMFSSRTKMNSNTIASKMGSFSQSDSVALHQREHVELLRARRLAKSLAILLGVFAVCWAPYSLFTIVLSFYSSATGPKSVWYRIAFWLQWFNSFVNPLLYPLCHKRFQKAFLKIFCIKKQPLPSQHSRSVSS
Estrogen receptor beta (Homo sapiens), sequence (Q92731 whole entry): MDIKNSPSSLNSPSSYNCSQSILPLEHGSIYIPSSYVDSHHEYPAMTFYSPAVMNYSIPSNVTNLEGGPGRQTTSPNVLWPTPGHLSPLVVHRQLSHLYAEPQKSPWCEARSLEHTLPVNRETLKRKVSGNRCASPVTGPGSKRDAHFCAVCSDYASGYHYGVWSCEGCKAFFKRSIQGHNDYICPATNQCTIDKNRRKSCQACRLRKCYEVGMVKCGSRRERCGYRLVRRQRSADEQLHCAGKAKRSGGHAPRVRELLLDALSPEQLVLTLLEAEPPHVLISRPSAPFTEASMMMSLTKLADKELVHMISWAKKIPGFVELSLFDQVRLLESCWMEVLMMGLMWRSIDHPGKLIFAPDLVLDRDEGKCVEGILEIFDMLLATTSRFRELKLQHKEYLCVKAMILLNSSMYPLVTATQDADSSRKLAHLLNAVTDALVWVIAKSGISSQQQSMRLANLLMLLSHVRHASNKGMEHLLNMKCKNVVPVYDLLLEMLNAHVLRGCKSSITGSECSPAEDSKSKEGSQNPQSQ

| Compound | IC50 (Histamine H3 receptor [3]) [nM] | EC50 (Histamine H3 receptor [4]) [nM] | Ki (Histamine H3 receptor [5]) [nM] | Ki (Histamine H3 receptor [6]) [nM] | Activity (Rattus norvegicus [8]) [%] | also measured |
| --- | --- | --- | --- | --- | --- | --- |
| Clc1ccc(CCCOCCCN2CCCCC2)cc1 [PITOLISANT] |  |  |  |  |  | Emax (Histamine H3 receptor [1]; filed as inverse agonist): 55%; Ki [2]: 19 nM |
| CC(=O)C1CCN(CCCOc2ccc3c(c2)CC[C@@H]2[C@@H]3CC[C@]3(C)[C@@H](N4CCCC4)CC[C@@H]23)CC1 | 14.2 | 1.4 | 2.7 | 7.5 |  |  |
| S=C(NC1CCCCC1)N1CCC(c2cnc[nH]2)CC1 [THIOPERAMIDE] |  |  |  | 23 |  | Emax (Histamine H3 receptor [1]; filed as inverse agonist): 50% |
| C[C@]12CC[C@@H]3c4ccc(OCc5cccnc5)cc4CC[C@H]3[C@@H]1CC[C@@H]2N1CCCC1 |  |  | 3 | 19 |  | Activity (Rattus norvegicus [7]): 57%; Ki [2]: 797 nM |
| C[C@]12CC[C@@H]3c4ccc(OCCCN5CCC(O)C5)cc4CC[C@H]3[C@@H]1CC[C@@H]2N1CCCC1 (stereo partly drawn) | 3.9 | 1.2 | 5.2 | 16.8 | 64 |  |
| C[C@]12CC[C@@H]3c4ccc(OCCCCN5CCCC5)cc4CC[C@H]3[C@@H]1CC[C@@H]2N1CCCC1 | 7.5 | 0.7 | 0.8 | 24.8 | 73 |  |
| C[C@H]1CCCN1CCCOc1ccc2c(c1)CC[C@@H]1[C@@H]2CC[C@]2(C)[C@@H](N3CCCC3)CC[C@@H]12 | 11.6 | 0.6 | 0.3 | 5.6 | 76 | Ratio Ki [9]: 22; Ki [2]: 122 nM |
| C[C@@H]1Cc2cc(OCCCN3CCCC3)ccc2[C@H]2CC[C@]3(C)[C@@H](N4CCCC4)CC[C@H]3[C@H]12 | 12 | 0.2 | 1.2 | 18.3 | 72 |  |
| C[C@]12CC[C@@H]3c4ccc(OCCCN5CCC(O)CC5)cc4CC[C@H]3[C@@H]1CC[C@@H]2N1CCCC1 | 4.2 | 4.4 | 5 | 24.3 | 55 |  |
| C[C@H]1[C@H]2CC[C@H]3[C@@H]4CC=C5C[C@@H](N(C)C)CC[C@]5(C)[C@H]4CC[C@]23CN1C |  |  |  |  | 84 | Activity [10]: 34% |
| CC1CCCN1CCCOc1ccc2c(c1)CC[C@@H]1[C@@H]2CC[C@]2(C)[C@@H](N3CCCC3)CC[C@@H]12 (mixture of isomers) | 12.1 | 0.4 | 0.5 | 3.6 | 69 | Ratio Ki [9]: 62; Ki [2]: 224 nM |
| C[C@]12CC[C@@H]3c4ccc(OCCCN5CCC(C(N)=O)CC5)cc4CC[C@H]3[C@@H]1CC[C@@H]2N1CCCC1 | 3 | 3.9 | 7 | 3.1 | 37 |  |
| C[C@]12CC[C@H]3[C@@H](CC=C4C[C@@H](OCCCN5CCCC5)CC[C@@]43C)[C@@H]1CC[C@@H]2N1CCCC1 |  |  | 4.3 | 10.2 |  | Activity (Rattus norvegicus [7]): 92% |
| C[C@]12CC[C@@H]3c4ccc(OCc5ccc(Cl)cn5)cc4CC[C@H]3[C@@H]1CC[C@@H]2N1CCCC1 |  |  | 1.6 | 49 |  | Activity (Rattus norvegicus [7]): 66%; Ki [2]: 705 nM |
| C[C@]12CC[C@@H]3c4ccc(OCCCN5CCCCCC5)cc4CC[C@H]3[C@@H]1CC[C@@H]2N1CCCC1 | 17.5 | 0.6 | 0.6 | 2.1 | 77 |  |
| C[C@]12CC[C@@H]3c4ccc(OCCN5CCCC5)cc4CC[C@H]3[C@@H]1CC[C@@H]2N1CCCC1 | 29 | 0.3 | 1.9 | 23.1 | 69 |  |
| CN1CCC[C@H]2[C@@H]3CC[C@H]4C[C@@H](OC(=O)CCN5CCCC5)CC[C@]4(C)[C@H]3CC[C@@]21C |  |  | 10 | 39 | 44 |  |
| C[C@]12CC[C@@H]3c4ccc(OCCCN5CCNC(=O)C5)cc4CC[C@H]3[C@@H]1CC[C@@H]2N1CCCC1 | 17.4 | 0.6 | 0.6 | 3.2 | 73 |  |
| C[C@@]12CC[C@@H]3c4ccc(OCCCN5CCCC5)cc4CC[C@H]3[C@@H]1CCC2N1CCCC1 (stereo partly drawn) | 16 | 0.8 | 1.4 | 6.1 | 71 |  |
| CC[C@]12CC[C@@H]3c4ccc(OCCCN5CCCC5)cc4CC[C@H]3[C@@H]1CC[C@@H]2N1CCCC1 | 16 | 0.9 | 0.8 | 16.6 | 69 |  |
| C[C@]12CC[C@@H]3c4ccc(OCc5ccccc5)cc4CC[C@H]3[C@@H]1CC[C@@H]2N1CCCC1 |  |  | 216 |  | 5 |  |
| C[C@]12CC[C@@H]3c4ccc(OCCCN5CCCC5)cc4CC[C@H]3[C@@H]1CC[C@@H]2N1CCCC1 | 6.1 | 0.1 | 0.6 | 2.4 | 74 | Activity [11]: 26%; Activity [12]: 19%; Activity [13]: 36%; Activity [14]: 44%; Activity [15]: 64%; Ki [2]: 110 nM |
| C[C@]12CC[C@@H]3c4ccc(OCc5ccccn5)cc4CC[C@H]3[C@@H]1CC[C@@H]2N1CCCC1 | 50.8 | 1 | 2.2 | 7.6 |  | Kp at 5 h [16]: 41.1; Vd [17]: 19.7 L/kg; bioavailability [18]: 25.4%; Tmax [19]: 1 h; inhibition in vivo at 10 mg/kg (Rattus norvegicus [20]): 122%; Ratio Ki [9]: 141; half-life [21]: 90 min; half-life [22]: 90 min; solubility thermodynamic at 24 h [23]: 93 µM (≈ 38.7 µg/mL); Papp [24]: 10.1 ×10⁻⁶ cm/s; Stability [25]: 93%; Stability [26]: 67%; Emax (Histamine H3 receptor [1]): 23%; Activity (Rattus norvegicus [7]): 51%; Ki [2]: 1080 nM |
| C[C@]12CC[C@@H]3c4ccc(OCc5ccncc5)cc4CC[C@H]3[C@@H]1CC[C@@H]2N1CCCC1 |  |  | 0.87 | 7.3 | 51 |  |
